Drawing on publication PMC13360702, “An Agonist/Antagonist Photo‐Switchable Vitamin D Mimetic Enables Bidirectional Optical Control of VDR” (Angewandte Chemie (International Ed. in English), 2026), this text covers IC50 for one compound.

Each structure is given as a SMILES string.

The target of the assay is T1, VDR (Homo sapiens, UniProt P11473).
T1 construct: -CMV-VDR-LBD coding for the hinge region and; expressed in transfected cells; host or cells: HEK293T
T1 sequence (P11473 127-423 limits assumed): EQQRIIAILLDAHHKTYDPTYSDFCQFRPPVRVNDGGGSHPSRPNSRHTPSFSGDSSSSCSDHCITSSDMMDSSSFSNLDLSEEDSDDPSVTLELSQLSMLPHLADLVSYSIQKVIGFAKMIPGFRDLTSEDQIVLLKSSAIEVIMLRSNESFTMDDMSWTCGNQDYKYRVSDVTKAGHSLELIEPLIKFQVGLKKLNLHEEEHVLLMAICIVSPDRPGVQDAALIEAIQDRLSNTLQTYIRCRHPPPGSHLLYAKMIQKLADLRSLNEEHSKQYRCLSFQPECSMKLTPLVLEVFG
Nature of the assay: Gal4‐VDR hybrid reporter gene assay, antagonist mode (vs. 0.3 µM calcitriol (2)). It is filed as cell-based. The note with it: dark‐adapted (E)‐state; vs. 0.3 µM 2 (calcitriol); read-out: VDR modulation dark (E): IC50 (antagonist mode). The procedure: FIGURE 2 Development and characterization of the light‐activated vitamin D mimetic photo‐vitD (10). (a) Structure activity relationship of photo‐switchable VDR agonists 4–10. Compounds were tested in a cellular Gal4‐VDR hybrid reporter gene assay. Relative activation is normalized to the effect of 2 (1 µM) set as 100% activation. The (Z)‐states of the compounds were maintained with a Cell‐Disco [24] (370 nm). […] Data in agonist (EC50) and antagonist mode (IC50; vs. 0.3 µM 2) are shown for (E)‐ and (Z)‐10. The corresponding dose‐response curves are shown in (d). (b) Predicted binding mode of (E)‐7 (green) in the VDR ligand binding site (pdb ID 4g1d). […] (c) Predicted binding mode of (Z)‐10 (yellow) in the VDR ligand binding site. The altered regiochemistry conveys strong preference for the light‐induced (Z)‐configuration and the extended naphthoic acid motif enables a strong ionic contact to R302. (d) Dose‐response curves of (E)‐ (dark) and (Z)‐10 (370 nm) in the Gal4‐VDR reporter gene assay in agonist (top) and antagonist mode (bottom, with 0.3 µM calcitriol (2)). (Z)‐10 activated VDR; (E)‐10 and (Z)‐10 antagonized VDR activation by 0.3 µM calcitriol (2). (Z)‐10 was maintained with a Cell‐Disco [24] (370 nm). […] Absorbance was measured at 351 nm with a 25 µM solution in DMSO, one cycle is 30 sec. […] (E)/(Z) ratios were measured by NMR. […]
Background: In a reporter assay the amount or activity of a reporter protein is the signal.

The IC50 is the point on the concentration scale where inhibition reaches its midpoint. Take `CCCc1cc(C(O)(CC)CC)ccc1-c1ccc(/N=N/c2ccc3cc(C(=O)O)ccc3c2)cc1C` [compound 10]: the IC50 came out at 600 ± 100 nM.
